Results on three compounds are retold here after patent US12064444B2, “Application of tannic acid in preparation of medicament against respiratory viruses” (priority 2020, dated 2024).

SMILES strings stand for the structures. Like-named read-outs stand apart in the source and are kept apart here.

One data set in a line: in vitro. To be noted: dog. On the procedure: (§1) 2. […] The maximum non-toxic concentration (TC0) of the medicament was taken as the minimum dilution times of the medicament without cytopathic changes, and the median toxic concentration (TC50) of the medicament was calculated by the Reed-Muench formula. 3. Experimental results
(§2) • (1) Medicaments: same as Embodiment 5; • (2) Other experimental materials were the same as those in Embodiment 3. 2. Experimental procedure: refer to Embodiment 3. 3. Experimental results

The test system of a further data set is Influenza A H1N1 virus. The data set is described as follows: microbe, parasite or virus in culture. To be noted: H1N1, MDCK.
Data set [1] has as its system SARS-CoV-2 virus. To be noted: SARS-CoV-2, Vero-E6 cells; […].
Data set [2] has as its system SARS-CoV-2 virus. The data set is described as follows: microbe, parasite or virus in culture.
For data set [3], the system named is African green monkey kidney cells (Vero-E6 cells). As to the kind of experiment: Toxicity to African green monkey kidney cells (Vero-E6), CCK-8, 48 hours. To be noted: Vero-E6 cells; for TC0 (maximum non-toxic concentration): 48 hours, CCK-8. An excerpt: (§3) • (1) Medicaments: experimental group, tannic acid; control group, Remdesivir (purchased from Shanghai TopScience Technology Co., Ltd.); • (2) Cell line: African green monkey kidney cells (Vero-E6 cells); • (3) Others: MEM medium; 96-well culture plate. 2. […] 3. Experimental results
(§4) • (1) Medicaments: in the experimental group, tannic acid was mixed with catechin, resveratrol, and zinc gluconate according to a mass ratio of 1:1 to prepare into three pharmaceutical compositions; in the control group, Remdesivir (purchased from Shanghai TopScience Technology Co., Ltd.); • (2) Other experimental materials were the same as those in Embodiment 1. 2. Experimental steps: refer to Embodiment 1. 3. Experimental results

Assay in data set [4]: as above
To be noted: African green monkey.
Text: as §3, §4

Data set [5] deals with canine kidney epithelial cells (MDCK cells). As to the kind of experiment: Toxicity to canine kidney epithelial cells (MDCK), cytopathic changes. To be noted: MDCK cells, cytopathic changes. On the procedure: as §1, §2
In general terms: Cytopathic effects are the visible damage that an infection or toxin causes in cultured cells.

[6] abbreviates: Severe acute respiratory syndrome coronavirus 2, Vero C1008, 48 h, read-out: IC50 (median inhibitory concentration).

Consider `NC(=O)c1ncn([C@@H]2O[C@H](CO)[C@@H](O)[C@H]2O)n1` [Ribavirin], for which, in “in vitro”, the CC50 was 1310 µM. Moreover, the IC50 in the data set on Influenza A H1N1 virus (48 h, read-out: IC50 (median inhibitory concentration)) was 22.6 ± 0.04 µM; in the data set on Influenza A H1N1 virus (Influenza A H1N1, MDCK cells, compositions, mass ratio 1:1) it was 5.52 ± 0.03 µg/mL.

For the compound `CCC(CC)COC(=O)[C@H](C)N[P@](=O)(OC[C@H]1O[C@@](C#N)(c2ccc3c(N)ncnn23)[C@H](O)[C@@H]1O)Oc1ccccc1` [Remdesivir], in the data set on SARS-CoV-2 virus [1], the SI stood at 162.21. For the same compound, the IC50 in the data set with SARS-CoV-2 virus [2] (Severe acute respiratory syndrome coronavirus 2, Vero C1008) is 0.392 ± 0.003 µg/mL; in the data set on SARS-CoV-2 virus [2] (setting [6]) it was 0.651 ± 0.013 µM. In addition, the “TC0 (maximum non-toxic concentration)” value in data set [3] was 52.8 µM. In data set [3] (compositions, mass ratio 1:1), the TC0 turned out to be 31.816 µg/mL. Also, the TC50 in data set [3] (compositions, mass ratio 1:1) worked out at 63.633 µg/mL. The compound further had a CC50 at 48 h in data set [4] of 106 µM.

Regarding `O=C(OC[C@H]1O[C@@H](OC(=O)c2cc(O)c(O)c(OC(=O)c3cc(O)c(O)c(O)c3)c2)[C@H](OC(=O)c2cc(O)c(O)c(OC(=O)c3cc(O)c(O)c(O)c3)c2)[C@@H](OC(=O)c2cc(O)c(O)c(OC(=O)c3cc(O)c(O)c(O)c3)c2)[C@@H]1OC(=O)c1cc(O)c(O)c(OC(=O)c2cc(O)c(O)c(O)c2)c1)c1cc(O)c(O)c(OC(=O)c2cc(O)c(O)c(O)c2)c1` [Tannic acid, tannic acid], in “in vitro”, the CC50 stood at 752 µM. In addition, the entries for the “TC0 (maximum non-toxic concentration)” value in data set [5] and in data set [3] were 376.21 µM and 11.8 µM, respectively. Also, the IC50 in the data set with SARS-CoV-2 virus [2] (setting [6]) amounted to 0.0032 µM. For the same compound, in data set [4], the CC50 at 48 h worked out at 23.5 µM.
